{"source": "patent US20240165135A1", "about": "“COMPOSITIONS AND METHODS FOR THE TREATMENT OF CANCER” (The State of Israel, Ministry of Agriculture & Rural …, priority 2021, published 2024)", "key": {"A172 GBM cells": {"test_system": "A172 GBM cells", "test": "XTT cell viability assay on A172", "assay_type": "cell-based, Human", "conditions": "for effect of IA, AN or B alone on A172 cell viability: 10 μM; for IC50: Homo sapiens, A 172, 48 h", "procedure": "Cell cultures—Human glioblastoma A172 (ATCC®CRL-1620™) was cultured in DMEM (01-055-1A, Biological Industries, Israel) and U87MG (U87; ATCC®HTB-14™) in EMEM (01-058-1A; Biological Industries, Israel). Both media were supplemented with 10% fetal bovine serum (FBS, 04-127-1A, Biological Industries, Israel), 1% Pen-Strep, 1% L-Glutamine and 0.02% plasmocin (i.e., complete medium). Cells were incubated at 37° C. in a humidified atmosphere containing 5% CO2—95% air. Serum free media (SFM) was composed of DMEM/F12 (01-170-1A; Biological Industries, Israel), including all the supplements above except for FBS. Neurosphere media for A172 was composed of SFM with 2% B-27; Neurosphere media for U87 was serum-free EMEM without B27. For Glioblastoma stem cells (GSCs) cultures all human materials were used in accordance with the policies of the Henry Ford Hospital Institutional Review Board. Generation of GSCs from fresh GBM specimens and their characterization have been recently described. The GSCs were plated in neurosphere medium (DMEM-F12 1:1, glutamine 10 mM, HEPES buffer 10 mM and sodium bicarbonate 0.025%) supplemented with EGF and bFGF (20 ng/mL).\n(§1) Cell viability assays—Cells were seeded in 96-well plates at density of 2×10^4 per well (100 μL/well) in SFM (for A172) or complete medium (for U87) and were incubated at 37° C. overnight to allow attachment. The following day, cells were treated with plant extracts (n=3), fractions, or cannabinoid standards in volume of 100 μL/well at different concentrations. Solvents used as a vehicle control and doxorubicin was used as a positive control in all the biological assays. Where indicated, CB1 or CB2 inverse agonists, TRPV1 or TRPV2 antagonists or TRPA1 blocker were added along with the indicated treatments at a concentration of 10 μM/mL in complete medium. Treated cells were incubated for 48 h at 37° C. Subsequently, XTT reagents (2,3-bis(2-methoxy-4-nitro-5-sulfophenyl)-5-[(phenylamine)-carbonyl]-2H-tetrazolium inner salt) (20-300-1000; Biological Industries, Israel) were added to the cells for 2 hours at 37° C. in a humidified 5% CO2—95% air atmosphere. Absorbance was recorded by a Synergy H1 hybrid reader photometer (BioTek) at 490 nm with 650 nm of reference wavelength. Cell viability was estimated from the equation: […]\n(§2) For dose response assays, data points were connected by non-linear regression lines of the sigmoidal dose-response relation. GraphPad Prism version 6.1 (www(dot)graphpad(dot)com/scientific-software/prism/, GraphPad Software Inc., San Diego, USA) was employed to produce dose-response curves and determination of IC50 values."}, "[1]": {"test_system": "ovarian cancer cell line HTB75", "test": "XTT cell viability assay on HTB75", "assay_type": "cell-based", "conditions": "for effect of IA, AN or B alone on HTB75 cell viability: 10 μM, 48 h", "procedure": "FIGS. 17A-B show cell viability of HTB75 cells (FIG. 17A) following treatment with crude extract of cannabis strains DQ, Paris, GB-11, GB-14 and GB-18. Cell viability was determined by XTT assay as a function of live cell number. NT is the vehicle treated control (1% v/v methanol). Error bars indicate ±SE (n=3). […] (FIG. 17B) following treatment with C. sativa DQ crude extract at different concentrations for IC50 value calculation from 5P logistic curve fit using GraphPad Prism version 6.1. Error bars indicate ±SE (n=3).\nFIGS. 18A-C show cell viability of HTB75 cells following treatment with DQ extract fractions F1-F8, and crude extract. FIG. 18A—Cell viability was determined by XTT assay as a function of live cell number. NT is the vehicle treated control (1% v/v methanol). Error bars indicate ±SE (n=3). […] (FIGS. 18B-C) Cell viability of HTB75 cells following treatment with C. sativa DQ fractions F5 and F7 at different concentrations for IC50 values calculation from 5P logistic curve fit using GraphPad Prism version 6.1. Error bars indicate ±SE (n=3).\nas §1, §2"}, "MAPK4 gene": {"test_system": "MAPK4 gene", "test": "Quantitative PCR of MAPK4 gene in HTB75 cell line", "assay_type": "cell-based", "conditions": "2 h, relative to control", "procedure": "FIG. 24 is a graph showing quantitative PCR-based determination of the RNA steady state level in HTB75 cell line of MAPK4 gene, after treatment with niraparib, F5, F7 or combination of niraparib+F5 or niraparib+F7, for 2 h relative to control. Gene transcript values were determined by quantitative PCR as a ratio between the target gene versus a reference gene (Hypoxanthine Phosphoribosyltransferasel; HPRT1; geneID 3251). Values were calculated relative to the average expression of target genes in treated versus control using the 2ΔΔCt method. Control (methanol) treatment served as solvent (vehicle) control; Error bars indicate ±s.e.m. (n=3)."}, "HTB75 cells [2]": {"test_system": "HTB75 cells", "test": "Cell cycle FACS, HTB75", "assay_type": "cell-based", "conditions": "24 h; F5-SM 17.4 μg/mL, niraparib 4 μg/mL; control 21.4%", "procedure": "(§3) 10^4 cells were analyzed per treatment. Control is vehicle control (1.5% v/v methanol). The treated cells were harvested and analyzed in FACS following annexin V-FITC and PI staining. Error bars indicate ±SE (n=3).\nCell cycle analysis—A172 cells were seeded in 6-well TC plate at a concentration of 4×10^5 cells in 2 mL of SFM per well. Following 24 hours incubation, cells were treated with indicated treatments in complete medium for 24 hours. Methanol and doxorubicin were used as negative and positive controls, respectively. Cells were harvested and centrifuged for 5 minutes at 1600 rpm. Cell pellets were washed once with 1 mL of PBS and fixed with 70% cold ethanol overnight at −20° C. The fixed cells were washed twice with 1 mL of PBS and stained with 250 μL of PI solution (50 μg/mL) containing RNase A (100 μg/mL) for 30 minutes in dark conditions. 250 μL PBS was added to each tube and the cells were analyzed using FACS."}, "HTB75 cells [3]": {"test_system": "HTB75 cells", "test": "Apoptosis/necrosis, annexin V-FITC and PI FACS, HTB75", "assay_type": "cell-based", "conditions": "48 h; niraparib 5.1, F5 19.1, F7 19.4, F5-SM 17.4, F7-SM 16.3 μg/mL; vehicle control 17.3%", "procedure": "as §3\nApoptosis assay—Apoptosis for the A172 cell line was assessed using MEBCYTO Apoptosis Kit with Annexin V-FITC and PI (MBL, Enco, 4700). Staining was carried out according to manufacturer's instructions. In brief, cells were seeded in a 6-well TC plate, at a density of 4×10^5 cells in 2 mL of SFM per well. 24 hours following seeding, cells were treated with the indicated treatments in complete medium for 48 hours. Following incubation, cells were harvested using trypsin and centrifuged for 5 minutes at 1600 rpm. Cell pellets were resuspended and washed twice with 1 mL of PBS. The cells in each sample were resuspended in 85 μL of Annexin binding buffer. Cells were stained using 10 μL of Annexin V-FITC solution and 5 μL of propidium iodide (PI) working solution followed by incubation in the dark at room temperature for 15 minutes. Then 400 μL of Annexin V binding buffer was added to each tube and flow cytometry was performed using a Gallios flow cytometer (FACS). Cells were considered apoptotic if they were Annexin V+/PI− (early apoptosis) or Annexin V+/PI+ (late apoptosis). Live cells were defined as Annexin V−/PI−, and Annexin V−/PI+ as necrosis."}, "A172 cells": {"test_system": "A172 cells", "test": "Scratch-wound assay, A172 cell migration", "assay_type": "cell-based, Human", "conditions": "36 hours; F4 20, F4-SM 11.5, F5 20, F5-SM 11.5, Doxo 0.5 μg/mL", "procedure": "Scratch-wound assay—A172 cells were seeded in a 96-well plate at a density of 2×10^4 per well in 100 μL of complete medium. Following 24 hours, cells in each well were scratched perpendicularly across the center of the well with a 200 μL pipette tip to produce a cell-free area for investigating the ability of the cells to migrate and close the gap under different treatments. Immediately following scratching, 100 μL of treatment solution was added. Photos were taken by a CARL ZEISS inverted microscope coupled with a camera at 0, 14, 20, and 36 hours following scratching, and the gap area was measured using ImageJ (version 1.53a). The scratch area, indicated by cells migrated into the scratch was calculated as percent of scratch area at time x from time 0: […]"}, "[4]": {"conditions": "given orally per mouse; reference [2]; cited from earlier work"}, "HTB75 cells [5]": {"test_system": "HTB75 cells", "test": "Combined treatments with chemotherapy drugs on HTB75 viability, Bliss-independence model", "assay_type": "cell-based", "conditions": "combination treatments", "description": "FIGS. 23A-C are graphs showing synergistic interactions between fractions of some embodiments of the invention with (FIG. 23A) cisplatin, (FIG. 23B) gemcitabine and (FIG. 23C) niraparib on cell viability of HTB75 cells following combined treatments. Synergy of cytotoxic activity calculated based on Bliss-independence drug interaction model. Synergy is apparent when the experimental (observed) value of cell survival inhibition is higher than the calculated (expected) value. Values of delta of observed minus expected values, calculated based on Bliss model are shown in the Y axis."}}}
{"compound": "COc1cccc(NC(=O)/C=C/c2ccc(Cl)cc2)c1", "note": "[TRPV1 AN, SB-366791]", "values": [{"measurement": "effect of IA, AN or B alone on A172 cell viability", "setting": "A172 GBM cells; 48 hours", "result": "reduced A172 cell viability to a minor, non-significant extent"}, {"measurement": "effect of IA, AN or B alone on HTB75 cell viability", "setting": "[1]", "result": "did not affect HTB75 cell viability"}]}
{"compound": "NC(=O)c1cccc2cn(-c3ccc([C@@H]4CCCNC4)cc3)nc12", "note": "[niraparib]", "values": [{"measurement": "MAPK4 expression", "setting": "MAPK4 gene", "result": "reduced"}, {"measurement": "percentage of cells in S phase", "setting": "HTB75 cells [2]", "result": 48.3, "unit": "%"}, {"measurement": "cell apoptosis", "setting": "HTB75 cells [3]", "result": 64.1, "unit": "%"}]}
{"compound": "CC(C)c1ccc(NC(=O)Cn2cnc3c2c(=O)n(C)c(=O)n3C)cc1", "note": "[TRPA1 B, HC-030031]", "values": [{"measurement": "effect of IA, AN or B alone on A172 cell viability", "setting": "A172 GBM cells; 48 hours", "result": "reduced A172 cell viability to a minor, non-significant extent"}, {"measurement": "effect of IA, AN or B alone on HTB75 cell viability", "setting": "[1]", "result": "did not affect HTB75 cell viability"}]}
{"compound": "Cn1nnc2c(C(N)=O)ncn2c1=O", "note": "[TMZ, temozolomide]", "values": [{"measurement": "effect on A172 viability / cell death", "setting": "A172 GBM cells; up to 50 μg/mL, 48 hours", "result": "no effect"}]}
{"compound": "CCCCCc1cc(O)c2c(c1)OC(C)(C)[C@@H]1CCC(C)=C[C@@H]21", "note": "[THC, Tetrahydrocannabinol]", "values": [{"measurement": "IC50", "setting": "A172 GBM cells", "result": 4.83, "unit": "µg/mL"}, {"measurement": "effectiveness of phytocannabinoid combinations on HTB75 viability", "setting": "[1]; fixed total concentration 13 and 15 μg/mL, ratios as in F5 or F7", "result": "less effective than various combinations of THC, CBC, CBG and CBN"}, {"measurement": "inhibition of cell migration in comparison to the vehicle control", "setting": "A172 cells", "result": 12.5, "unit": "%"}]}
{"compound": "CO", "note": "[methanol]", "values": [{"measurement": "LD50", "setting": "[4]", "result": "~7300", "unit": "mg/kg"}]}
{"compound": "CCCCCc1cc(O)c(C/C=C(\\C)CCC=C(C)C)c(O)c1", "note": "[CBG, cannabigerol]", "values": [{"measurement": "IC50", "setting": "A172 GBM cells", "result": 5, "unit": "µg/mL"}, {"measurement": "inhibition of cell migration in comparison to the vehicle control", "setting": "A172 cells", "result": 2.8, "unit": "%"}]}
{"compound": "Cc1c(C(=O)NN2CCCCC2)nn(-c2ccc(Cl)cc2Cl)c1-c1ccc(I)cc1", "note": "[AM251]", "values": [{"measurement": "effect of IA, AN or B alone on A172 cell viability", "setting": "A172 GBM cells; 48 hours", "result": "reduced A172 cell viability to a minor, non-significant extent"}, {"measurement": "effect of IA, AN or B alone on HTB75 cell viability", "setting": "[1]", "result": "did not affect HTB75 cell viability"}]}
{"compound": "SR144528 [CB2 IA]", "values": [{"measurement": "effect of IA, AN or B alone on A172 cell viability", "setting": "A172 GBM cells; 48 hours", "result": "reduced A172 cell viability to a minor, non-significant extent"}, {"measurement": "effect of IA, AN or B alone on HTB75 cell viability", "setting": "[1]", "result": "did not affect HTB75 cell viability"}]}
{"compound": "Nc1ccn([C@@H]2O[C@H](CO)[C@@H](O)C2(F)F)c(=O)n1", "note": "[Gemcitabine]", "values": [{"measurement": "synergy of gemcitabine with F5, F7, F5-SM, F7-SM", "setting": "HTB75 cells [5]", "result": "no considerable synergy"}]}
